This is an account of results in US6559115B1, “Detergent tablet with high mechanical and dissolution characteristics” (The Procter & Gamble Company, priority 1998, dated 2003).

Data set [1] in a line: Conductivity test defining a highly soluble compound. Type of data set: physicochemical. Particulars: conductivity reaches 80% of maximum in less than 10 seconds.
Description: A solution is prepared as follows comprising de-ionised water as well as 20 grams per liter of a specific compound:
1—20 g of the specific compound is placed in a Sotax Beaker. This beaker is placed in a constant temperature bath set at 10° C. A stirrer with a marine propeller is placed in the beaker so that the bottom of the stirrer is at 5 mm above the bottom of the Sotax beaker. The mixer is set at a rotation speed of 200 turns per minute.
2—980 g of the de-ionised water is introduced into the Sotax beaker.
3—10 s after the water introduction, the conductivity of the solution is measured, using a conductivity meter.
4—Step 3 is repeated after 20, 30, 40, 50, 1 min, 2 min, 5 min and 10 min after step 2.
5—The measurement taken at 10 min is used as the plateau value or maximum value.
A short description of data set [2]: Tablet compression and tensile strength (diametrical fracture stress). The format is physicochemical. Particulars: tensile strength increased by over 30% by 3% compound at compacting force 3000N. From the text:
For the purpose of this invention, the Cohesive Effect on the particulate material of a detergent matrix is characterised by the force required to break a tablet based on the examined detergent matrix pressed under controlled compression conditions. […] Means to assess tablet strength (also refer to diametrical fracture stress) are given in Pharmaceutical dosage forms: tablets volume 1 Ed. H. A. Lieberman et al, published in 1989.
The temperature of the addition is between 10 and 80 C., more pref. between 10 and 40 C.
For a cylindrical tablet, the tensile strength corresponds to the diametrical fracture stress (DFS) which is a way to express the strength of a tablet, and is determined by the following equation: [formula]
Where F is the maximum force (Newton) to cause tensile failure (fracture) measured by a VK 200 tablet hardness tester supplied by Van Kell industries, Inc. D is the diameter of the tablet, and t the thickness of the tablet.
iii) Tablets were then made the following way: 50 g of the mixture was introduced into a mould of circular shape with a diameter of 5.5 cm and compressed to give a tablet tensile strength (or diametrical fracture stress) of 15 kPa. The force required to obtain a tablet tensile strength of 15 kPa was 2400 N. The tablet height was 1.94 cm.

Turning to “sodium di isoalkylbenzene sulphonate [Compounds of Example 1]”, the “Highly soluble compound according to the invention” value in data set [1] is reported as “highly soluble”. For the same substance, the “Cohesive effect on the particulate material” value in data set [2] is reported as “having a cohesive effect”.
